According to patent US20230250095A1, “BENZIMIDAZOLE DERIVATIVES, PREPARATION METHOD THEREFOR AND MEDICAL USE THEREOF” (TUOJIE BIOTECH(SHANGHAI) CO., LTD., priority 2020, published 2023):
Where two headings read alike, the source gives them in different places.

Legend:
hP2X2/3 = target: T1, hP2X2/3 (Homo sapiens, UniProt P56373+Q9UBL9); assay: FLIPR calcium flux assay, antagonistic activity against hP2X2/3 receptor; assay type: cell-based; conditions: 1321N1/hP2X2/3 cells, agonist α,β-meATP 1000 nM
T1 construct: host or cells: 1321N1 cells
T1 sequence (Q9UBL9 1-471): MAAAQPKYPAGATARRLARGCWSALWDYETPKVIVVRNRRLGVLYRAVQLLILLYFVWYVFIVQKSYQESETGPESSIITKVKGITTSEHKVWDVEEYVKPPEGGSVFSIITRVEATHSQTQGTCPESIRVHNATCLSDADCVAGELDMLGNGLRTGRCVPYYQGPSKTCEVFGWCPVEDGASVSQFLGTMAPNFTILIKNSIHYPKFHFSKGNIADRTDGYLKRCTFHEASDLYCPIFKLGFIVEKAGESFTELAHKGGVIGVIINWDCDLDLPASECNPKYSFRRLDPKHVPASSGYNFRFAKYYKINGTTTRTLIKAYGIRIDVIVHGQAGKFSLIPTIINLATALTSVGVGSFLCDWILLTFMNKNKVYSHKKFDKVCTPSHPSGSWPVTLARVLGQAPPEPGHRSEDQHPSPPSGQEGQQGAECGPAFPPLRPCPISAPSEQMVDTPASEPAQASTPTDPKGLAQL
T1 sequence (P56373 1-397): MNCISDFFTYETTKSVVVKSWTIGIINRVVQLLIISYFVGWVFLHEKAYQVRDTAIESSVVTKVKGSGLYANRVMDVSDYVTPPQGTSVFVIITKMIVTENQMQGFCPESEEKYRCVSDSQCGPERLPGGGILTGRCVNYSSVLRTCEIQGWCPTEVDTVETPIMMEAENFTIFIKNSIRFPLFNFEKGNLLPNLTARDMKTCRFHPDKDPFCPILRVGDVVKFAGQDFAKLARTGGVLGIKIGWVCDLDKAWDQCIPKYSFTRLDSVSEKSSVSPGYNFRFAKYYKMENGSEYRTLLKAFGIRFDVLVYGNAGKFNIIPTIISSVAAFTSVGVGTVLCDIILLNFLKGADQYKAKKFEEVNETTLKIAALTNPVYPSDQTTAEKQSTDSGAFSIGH
Protocol: The compounds were screened for antagonistic activity against hP2X3 and hP2X2/3 receptors (changes in calcium flux signals represent the effect of the compounds on ion channels) by an FLIPR assay.
1321N1 cells (adherent cells) stably transfected with hP2X3 and hP2X2/3 receptors were digested, centrifuged, resuspended in a plating medium (DMEM+10% DFBS) and counted, adjusted to 2×10^5 cells/mL. The cells were seeded in a 384-well assay plate at 50 μL/well, and incubated in an incubator at 37° C. with 5% CO2 for 16-24 h. Test compounds (20 mM DMSO stock solution) that were 180 times the desired concentration were prepared with DMSO, and added to a 384-well compound plate at 500 nL/well. Then, each well was supplemented with 30 μL of FLIPR buffer (lx HBSS containing 1.26 mM Ca^2++2 mM CaCl2)+20 mM HEPES), and the mixture was shaken for 20-40 min to be mixed well. The agonist α,β-meATP (final concentration of 500 nM for hP2X3 cells and final concentration of 1000 nM for hP2X2/3 cells) that was 3 times the desired concentration was prepared with an FLIPR buffer, and added to another 384-well compound plate at 35 μL/well. The cell plate in which cells had been plated and cultured for 16-24 h was taken out, and the cell supernatant was removed by pipetting. 30 μL of dye (FLIPR® calcium 4 assay kit, diluted with an FLIPR buffer) was added to each well, and the plate was incubated for 1 h. 15 μL of the compound was added to each well containing cells (dosing using an FLIPR instrument), and after 15 min, 22.5 μL of agonist was added to each well and the fluorescent signal was detected (excitation wavelength: 470-495 nm, emission wavelength: 515-575 nm). With the difference between the peak and the trough of the signal taken as the basic data, the data of the highest concentration of the positive drug taken as the 100% inhibition rate, and the data of DMSO taken as the 0% inhibition rate, the inhibition effect curves of the compounds were fitted on the software Graphpad Prism 6 and IC50 values were calculated.

CYP2C19 = target: T2, CYP2C19 (Homo sapiens, UniProt P33261); assay: CYP inhibition assay in pooled human liver microsomes (S-mephenytoin); assay type: in vitro ADME
T2 construct: 150-donor pooled human liver microsomes (purchased from Corning, Cat. No. 452117); tissue Corning 452117; host or cells: 150-donor pooled human liver microsomes
Protocol: (§1) The metabolic reactions of representative substrates of 5 major human CYP subtypes (CYP1A2, CYP2C9, CYP2C19, CYP2D6, CYP3A4/5) were evaluated using 150-donor pooled human liver microsomes (purchased from Corning, Cat. No. 452117). The effects of different concentrations of the test compounds on the metabolic reactions of phenacetin (CYP1A2), diclofenac sodium (CYP2C9), S-mephenytoin (CYP2C19), bufuralol hydrochloride (CYP2D6) and midazolam (CYP3A4/5) were determined by liquid chromatography-tandem mass spectrometry (LC/MS/MS).
(§2) 30 μM phenacetin, 10 μM diclofenac sodium, 35 μM S-mephenytoin, 5 μM bufuralol hydrochloride, 3 μM midazolam, 1 mM NADPH, and test compounds (at concentrations of 0.1 μmol/L, 0.3 μmol/L, 1 μmol/L, 3 μmol/L, 10 μmol/L, and 30 μmol/L, respectively) or positive compound or blank were incubated with 200 μL of a reaction system of pooled human liver microsomes (0.2 mg/mL) (100 mmol/L phosphate buffer, pH 7.4, containing 0.3% by volume of DMSO, 0.6% by volume of acetonitrile, and 0.1% by volume of methanol) at 37° C. for 5 min. Then, 200 μL of acetonitrile containing 3% formic acid and 40 nM internal standard verapamil was added, and the mixture was centrifuged at 4000 rpm for 50 min. The mixture was cooled on ice for 20 min and centrifuged at 4000 rpm for 20 min to precipitate the protein. 200 μL of the supernatant was analyzed by LC/MS/MS.
(§3) The peak area was calculated from the chromatogram. The residual activity rate (%) was calculated by the following formula:
(§4) peak area rate=peak area of metabolite/peak area of internal standard
(§5) residual activity rate (%)=peak area proportion of the test compound group/peak area proportion of the blank group
(§6) The half maximal inhibitory concentrations (IC50) against CYP were calculated by Excel XLfit 5.3.1.3.

CYP2D6 = target: T3, CYP2D6 (Homo sapiens, UniProt P10635); assay: CYP inhibition assay in pooled human liver microsomes (bufuralol hydrochloride); assay type: in vitro ADME; conditions: human liver microsomes 0.2 mg/mL, substrate bufuralol hydrochloride; read-out: CYP 2D6 (μM) IC50
T3 construct: 150-donor pooled human liver microsomes (purchased from Corning, Cat. No. 452117); tissue Corning 452117; host or cells: 150-donor pooled human liver microsomes
Protocol: as §1, §2, §3, §4, §5, §6

[1] = human liver microsomes 0.2 mg/mL, substrate S-mephenytoin, read-out: CYP 2C19 (μM) IC50

T2 sequence (P33261 whole entry): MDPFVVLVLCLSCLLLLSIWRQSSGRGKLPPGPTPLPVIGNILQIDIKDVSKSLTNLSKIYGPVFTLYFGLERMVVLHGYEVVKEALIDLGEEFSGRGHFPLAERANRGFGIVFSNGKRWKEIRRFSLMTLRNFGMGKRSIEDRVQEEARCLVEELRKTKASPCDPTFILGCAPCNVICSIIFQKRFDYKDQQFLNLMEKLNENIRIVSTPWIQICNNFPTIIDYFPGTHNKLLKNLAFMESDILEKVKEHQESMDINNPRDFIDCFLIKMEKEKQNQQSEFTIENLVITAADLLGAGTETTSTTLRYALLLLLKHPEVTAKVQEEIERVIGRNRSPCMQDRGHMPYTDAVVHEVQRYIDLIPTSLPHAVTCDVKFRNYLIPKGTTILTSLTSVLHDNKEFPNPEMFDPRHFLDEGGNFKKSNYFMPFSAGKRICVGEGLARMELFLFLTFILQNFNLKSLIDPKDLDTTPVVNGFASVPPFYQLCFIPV
T3 sequence (P10635 whole entry): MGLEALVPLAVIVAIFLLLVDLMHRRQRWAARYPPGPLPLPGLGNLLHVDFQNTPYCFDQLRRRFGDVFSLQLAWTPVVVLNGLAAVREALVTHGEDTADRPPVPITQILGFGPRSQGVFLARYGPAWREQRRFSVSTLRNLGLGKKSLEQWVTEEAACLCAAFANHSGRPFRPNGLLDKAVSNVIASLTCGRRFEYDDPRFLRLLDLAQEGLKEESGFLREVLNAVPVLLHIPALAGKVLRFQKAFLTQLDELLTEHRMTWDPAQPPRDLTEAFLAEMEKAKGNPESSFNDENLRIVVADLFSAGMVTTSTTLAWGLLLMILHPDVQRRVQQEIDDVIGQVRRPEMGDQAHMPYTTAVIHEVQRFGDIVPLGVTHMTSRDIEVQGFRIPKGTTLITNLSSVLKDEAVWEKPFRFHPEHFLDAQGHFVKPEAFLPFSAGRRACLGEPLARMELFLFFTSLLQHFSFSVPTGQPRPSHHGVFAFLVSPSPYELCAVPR

Compound	IC50 (hP2X2/3) [µM]	IC50 (CYP2C19; [1]) [µM]	IC50 (CYP2D6) [µM]	IC50 (CYP2C19) [µM]
CC(=O)N1CCO[C@@H](Cn2c(-c3ccc(N4CCCC4=O)cc3Cl)nc3cc(C)ccc32)C1 [Compound 3, (S)-1-(4-(1-((4-acetylmorpholin-2-yl)methyl)-5-methyl-1H-benzo[d]imidazol-2-yl)-3-chlorophenyl)pyrrolidin-2-one]	1.81	> 30	> 30	
CC(=O)N1CCO[C@@H](Cn2c(-c3c(F)cc(N4CCCC4=O)cc3Cl)nc3cc(C)ccc32)C1 [Compound 4, (S)-1-(4-(1-((4-acetylmorpholin-2-yl)methyl)-5-methyl-1H-benzo[d]imidazol-2-yl)-3-chloro-5-fluorophenyl)pyrrolidin-2-one]	1.93	> 30	> 30	
COC(=O)N1CCO[C@@H](Cc2c(-c3c(F)cc(N4CCCC4=O)cc3F)nc3cc(C)ccn23)C1 [Compound 9, Methyl (S)-2-((2-(2,6-difluoro-4-(2-carbonylpyrrolidin-1-yl)phenyl)-7-methylimidazo[1,2-a]pyridin-3-yl)methyl)morpholine-4-carboxylate]	30.3		> 30	12.9
CC(=O)N1CCO[C@@H](Cn2c(-c3c(F)cc(N4CCCC4=O)cc3F)nc3cc(Cl)ccc32)C1 [Compound 10, (S)-1-(4-(1-((4-acetylmorpholin-2-yl)methyl)-5-chloro-1H-benzo[d]imidazol-2-yl)-3,5-difluorophenyl)pyrrolidin-2-one]	7.41	> 30	> 30	

Further lines, with some results ahead:

IC50 (hP2X2/3) [µM]	IC50 (CYP2C19; [1]) [µM]	IC50 (CYP2D6) [µM]	Compound	IC50 (CYP2C19) [µM]
19	14.6	> 30	COC(=O)N1CCOC(Cn2c(-c3c(F)cc(N4CCCC4=O)cc3F)nc3cc(C)ccc32)C1 (centres unmarked) [Compound 2, Methyl 2-((2-(2,6-difluoro-4-(2-carbonylpyrrolidin-1-yl)phenyl)-5-methyl-1H-benzo[d]imidazol-1-yl)methyl)morpholine-4-carboxylate]	
	> 30	> 30	[2H]C([2H])([2H])c1ccc2c(c1)nc(-c1c(F)cc(N3CCCC3=O)cc1F)n2C[C@H]1CN(C(C)=O)CCO1 [Compound 14, (S)-1-(4-(1-((4-acetylmorpholin-2-yl)methyl)-5-(methyl-d3)-1H-benzo[d]imidazol-2-yl)-3,5-difluorophenyl)pyrrolidin-2-one]	
5.57	13	> 30	CC(=O)N1CCOC(Cn2c(-c3c(F)cc(N4CCCC4=O)cc3F)nc3cc(C)ccc32)C1 (stereo in doubt) [Compound 1]	
